In brackets after ≈: the same amount, converted by molar mass. Where two headings read alike, the source gives them in different places.
Key:
Assay type in all cases: cell-based
E. coli ATCC 25922 = assay: Broth microdilution MIC, E. coli ATCC 25922; settings: Escherichia coli
How it was run: (§1)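 Strains are tested by standard CLSI broth microdilution. Log-phase cells, diluted by OD600 to 5×10^5 CFU/mL, meet 2-fold compound series and incubate 16-20 hours at 37° C before the lowest growth-free concentration is recorded.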

[1] = tested on: N. gonorrhoeae ATCC 49226; assay: Liquid broth MIC, N. gonorrhoeae ATCC 49226; settings: Neisseria gonorrhoeae, ATCC49226; N. gonorrhoeae ATCC 49226, liquid broth; read-out: Minimum Inhibitory Concentration, N. gonorrhoeae ATCC 49226
How it was run: (§2)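 Growth inhibition was scored by eye as the lowest compound concentration free of bacterial growth. Cultures from Kellogg's-supplemented GC agar, diluted to 5×10^5 CFU/mL, were exposed to serially diluted compound for 40-42 h at 36° C under 5% CO2.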

N. gonorrhoeae WHO F = assay: Liquid broth MIC, N. gonorrhoeae WHO F; settings: Neisseria gonorrhoeae; N. gonorrhoeae WHO F, liquid broth; read-out: Minimum Inhibitory Concentration, N. gonorrhoeae WHO F
How it was run: as §2

E. coli AG100A = assay: microbe, parasite or virus in culture; settings: Escherichia coli, read-out: MIC E. coli AG100A
How it was run: as §1

E. coli D22 = assay: microbe, parasite or virus in culture; settings: Escherichia coli; hyper-permeable E. coli D22, broth microdilution; read-out: MIC E. coli D22
How it was run: as §1

K. pneumoniae SI-117 = assay: microbe, parasite or virus in culture; settings: Klebsiella pneumoniae, SI117, read-out: MIC K. pneumoniae SI-117
How it was run: as §1

E. coli 901C = assay: microbe, parasite or virus in culture; settings: Escherichia coli; hyper-permeable E. coli 901C, broth microdilution; read-out: MIC E. coli 901C
How it was run: as §1

K. pneumoniae UMM = assay: microbe, parasite or virus in culture; settings: Klebsiella pneumoniae; K. pneumoniae UMM producing SHV-5 and KPC-2; read-out: MIC K. pneumoniae UMM
How it was run: as §1

[2] = ATCC25922, E. coli ATCC 25922, broth microdilution, read-out: MIC E. coli 25922

Row | SMILES | MIC (E. coli ATCC 25922; [2]) [µg/mL] | MIC [1] [µg/mL] | MIC (N. gonorrhoeae WHO F) [µg/mL] | MIC (E. coli AG100A) [µg/mL] | MIC (E. coli D22) [µg/mL] | MIC (K. pneumoniae SI-117) [µg/mL] | MIC (E. coli 901C) [µg/mL] | MIC (K. pneumoniae UMM) [µg/mL] | MIC (E. coli ATCC 25922; ATCC25922, read-out: MIC E. coli 25922) [µg/mL]
1 | NS(=O)(=O)c1ccc(C(NC(=O)N2CCN(CCF)C(=O)C2=O)C(=O)N[C@H]2Cc3cccc(C(=O)O)c3OB2O)c(F)c1 (stereo partly drawn) [Example 204, (3R)-3-(2-(2-fluoro-4-sulfamoylphenyl)-2-(4-(2-fluoroethyl)-2,3-dioxopiperazine-1-carboxamido)acetamido)-2-hydroxy-3,4-dihydro-2H-benzo[e][1,2]oxaborinine-8-carboxylic acid] | 32 to 64 | 1 to 2 (≈ 1.6 to 3.21 µM) | 0.25 to 0.5 (≈ 0.401 to 0.802 µM) | 2 to 4 | 2 to 4 | > 128 | < 0.25 | 32 to 64 | –
2 | CCN1CCN(C(=O)NC(C(=O)N[C@H]2Cc3cccc(C(=O)O)c3OB2O)c2nc(N)sc2F)C(=O)C1=O (stereo partly drawn) [Example 205, (3R)-3-(2-(2-amino-5-fluorothiazol-4-yl)-2-(4-ethyl-2,3-dioxopiperazine-1-carboxamido)acetamido)-2-hydroxy-3,4-dihydro-2H-benzo[e][1,2]oxaborinine-8-carboxylic acid] | 2 to 4 | < 0.125 | < 0.125 | 0.5 to 1 | 0.5 to 1 | 32 to 64 | < 0.25 | > 128 | –
3 | CCN1C[C@H](C)N(C(=O)NC(C(=O)N[C@H]2Cc3ccc(F)c(C(=O)O)c3OB2O)c2ccc(O)c(O)c2Cl)C(=O)C1=O (stereo partly drawn) [Example 206, (3R)-3-(2-(2-chloro-3,4-dihydroxyphenyl)-2-((S)-4-ethyl-6-methyl-2,3-dioxopiperazine-1-carboxamido)acetamido)-7-fluoro-2-hydroxy-3,4-dihydro-2H-benzo[e][1,2]oxaborinine-8-carboxylic acid] | 2 to 4 | 4 to 8 (≈ 6.59 to 13.2 µM) | 0.25 to 0.5 (≈ 0.412 to 0.824 µM) | < 0.25 | 0.5 to 1 | 2 to 4 | < 0.25 | 2 to 4 | –
4 | CCN1C[C@H](C)N(C(=O)NC(C(=O)N[C@H]2Cc3ccc(F)c(C(=O)O)c3OB2O)c2ncc(O)cc2F)C(=O)C1=O (stereo partly drawn) [Example 208, (3R)-3-(2-((S)-4-ethyl-6-methyl-2,3-dioxopiperazine-1-carboxamido)-2-(3-fluoro-5-hydroxypyridin-2-yl)acetamido)-7-fluoro-2-hydroxy-3,4-dihydro-2H-benzo[e][1,2]oxaborinine-8-carboxylic acid] | 8 to 16 | 4 to 8 (≈ 6.95 to 13.9 µM) | < 0.125 | 2 to 4 | 2 to 4 | 32 to 64 | < 0.25 | 8 to 16 | –
5 | CCN1CCN(C(=O)NC(C(=O)N[C@H]2Cc3cccc(C(=O)O)c3OB2O)c2ccc(S(N)(=O)=O)c(F)c2)C(=O)C1=O (stereo partly drawn) [Example 210, (3R)-3-(2-(4-ethyl-2,3-dioxopiperazine-1-carboxamido)-2-(3-fluoro-4-sulfamoylphenyl)acetamido)-2-hydroxy-3,4-dihydro-2H-benzo[e][1,2]oxaborinine-8-carboxylic acid] | 8 to 16 | 4 to 8 (≈ 6.61 to 13.2 µM) | < 0.125 | 2 to 4 | 2 to 4 | > 128 | < 0.25 | 32 to 64 | –
6 | CCN1CCN(C(=O)NC(C(=O)N[C@H]2Cc3cccc(C(=O)O)c3OB2O)c2ccc(C(=O)O)cc2)C(=O)C1=O (stereo partly drawn) [Example 212, (3R)-3-(2-(4-carboxyphenyl)-2-(4-ethyl-2,3-dioxopiperazine-1-carboxamido)acetamido)-2-hydroxy-3,4-dihydro-2H-benzo[e][1,2]oxaborinine-8-carboxylic acid] | – | 0.25 to 0.5 (≈ 0.453 to 0.905 µM) | < 0.125 | 8 to 16 | 2 to 4 | > 128 | < 0.25 | 32 to 64 | 32 to 64
7 | O=C(O)c1cccc2c1OB(O)[C@@H](NC(=O)C(NC(=O)N1CCN(CCF)C(=O)C1=O)c1ccc(S(=O)(=O)NCCO)cc1)C2 (stereo partly drawn) [Example 213, (3R)-3-(2-(4-(2-fluoroethyl)-2,3-dioxopiperazine-1-carboxamido)-2-(4-(N-(2-hydroxyethyl)sulfamoyl)phenyl)acetamido)-2-hydroxy-3,4-dihydro-2H-benzo[e][1,2]oxaborinine-8-carboxylic acid] | > 128 | 4 to 8 (≈ 6.16 to 12.3 µM) | 0.25 to 0.5 (≈ 0.385 to 0.77 µM) | 8 to 16 | 2 to 4 | > 128 | 0.5 to 1 | 32 to 64 | –
8 | CCN1CCN(C(=O)NC(C(=O)N[C@H]2Cc3ccc(Cl)c(C(=O)O)c3OB2O)c2ncc(O)cc2F)C(=O)C1=O (stereo partly drawn) [Example 216, (3R)-7-chloro-3-(2-(4-ethyl-2,3-dioxopiperazine-1-carboxamido)-2-(3-fluoro-5-hydroxypyridin-2-yl)acetamido)-2-hydroxy-3,4-dihydro-2H-benzo[e][1,2]oxaborinine-8-carboxylic acid] | 32 to 64 | 1 to 2 (≈ 1.73 to 3.46 µM) | < 0.125 | 8 to 16 | 2 to 4 | 32 to 64 | 0.5 to 1 | 32 to 64 | –
9 | CCN1CCN(C(=O)NC(C(=O)N[C@H]2Cc3ccc(Cl)c(C(=O)O)c3OB2O)c2ccc(O)c(O)c2Cl)C(=O)C1=O (stereo partly drawn) [Example 217, (3R)-7-chloro-3-(2-(2-chloro-3,4-dihydroxyphenyl)-2-(4-ethyl-2,3-dioxopiperazine-1-carboxamido)acetamido)-2-hydroxy-3,4-dihydro-2H-benzo[e][1,2]oxaborinine-8-carboxylic acid] | 8 to 16 | 16 to 32 (≈ 26.3 to 52.5 µM) | 0.25 to 0.5 (≈ 0.41 to 0.821 µM) | 2 to 4 | 2 to 4 | 2 to 4 | 2 to 4 | 2 to 4 | –
10 | CC[C@H]1CN(CC)C(=O)C(=O)N1C(=O)NC(C(=O)N[C@H]1Cc2cccc(C(=O)O)c2OB1O)c1ncc(O)cc1F (stereo partly drawn) [Example 218, (3R)-3-(2-((S)-4,6-diethyl-2,3-dioxopiperazine-1-carboxamido)-2-(3-fluoro-5-hydroxypyridin-2-yl)acetamido)-2-hydroxy-3,4-dihydro-2H-benzo[e][1,2]oxaborinine-8-carboxylic acid] | 32 to 64 | 16 to 32 (≈ 28 to 56 µM) | 0.25 to 0.5 (≈ 0.438 to 0.875 µM) | 2 to 4 | 2 to 4 | > 128 | < 0.25 | 32 to 64 | –
11 | C[C@H]1CN(CCO)C(=O)C(=O)N1C(=O)NC(C(=O)N[C@H]1Cc2cccc(C(=O)O)c2OB1O)c1ccc(O)c(O)c1Cl (stereo partly drawn) [Example 224, (3R)-3-(2-(2-chloro-3,4-dihydroxyphenyl)-2-((S)-4-(2-hydroxyethyl)-6-methyl-2,3-dioxopiperazine-1-carboxamido)acetamido)-2-hydroxy-3,4-dihydro-2H-benzo[e][1,2]oxaborinine-8-carboxylic acid] | 2 to 4 | > 64 | 4 to 8 (≈ 6.61 to 13.2 µM) | 0.5 to 1 | 2 to 4 | 2 to 4 | 0.5 to 1 | 2 to 4 | –
12 | NCCN1CCN(C(=O)N[C@@H](C(=O)N[C@H]2Cc3cccc(C(=O)O)c3OB2O)c2ncc(O)cc2F)C(=O)C1=O [Example 225, (R)-3-((R)-2-(4-(2-aminoethyl)-2,3-dioxopiperazine-1-carboxamido)-2-(3-fluoro-5-hydroxypyridin-2-yl)acetamido)-2-hydroxy-3,4-dihydro-2H-benzo[e][1,2]oxaborinine-8-carboxylic acid] | 8 to 16 | 16 to 32 (≈ 28.7 to 57.3 µM) | 0.25 to 0.5 (≈ 0.448 to 0.896 µM) | 0.5 to 1 | 2 to 4 | 8 to 16 | 0.5 to 1 | 8 to 16 | –
13 | NCCN1CCN(C(=O)N[C@@H](C(=O)N[C@H]2Cc3ccc(F)c(C(=O)O)c3OB2O)c2ccc(O)c(O)c2Cl)C(=O)C1=O [Example 227, (R)-3-((R)-2-(4-(2-aminoethyl)-2,3-dioxopiperazine-1-carboxamido)-2-(2-chloro-3,4-dihydroxyphenyl)acetamido)-7-fluoro-2-hydroxy-3,4-dihydro-2H-benzo[e][1,2]oxaborinine-8-carboxylic acid] | 0.5 to 1 | 4 to 8 (≈ 6.58 to 13.2 µM) | 1 to 2 (≈ 1.65 to 3.29 µM) | < 0.25 | 0.5 to 1 | 0.5 to 1 | < 0.25 | 0.5 to 1 | –
14 | CC(=O)NCCN1CCN(C(=O)NC(C(=O)N[C@H]2Cc3cccc(C(=O)O)c3OB2O)c2ccc(O)c(O)c2Cl)C(=O)C1=O (stereo partly drawn) [Example 228, (3R)-3-(2-(4-(2-acetamidoethyl)-2,3-dioxopiperazine-1-carboxamido)-2-(2-chloro-3,4-dihydroxyphenyl)acetamido)-2-hydroxy-3,4-dihydro-2H-benzo[e][1,2]oxaborinine-8-carboxylic acid] | 8 to 16 | > 64 | 4 to 8 (≈ 6.33 to 12.7 µM) | 0.5 to 1 | 2 to 4 | 2 to 4 | 0.5 to 1 | 0.5 to 1 | –

From patent US12173018B2, “Penicillin-binding protein inhibitors” (priority 2018, dated 2024)
